What was measured:
[1] = biological target: Substance-P receptor (Homo sapiens) (UniProt P25103); experiment: Displacement of [125I]BH-SP from NK1 receptor in human U373MG cells at 10 uM; format: cell-based; conditions: U-373MG ATCC
[2] = Displacement of radioligand from NMDA receptor at 10 uM
[3] = biological target: T1, Endothelin-1 receptor (Homo sapiens) (UniProt P25101); experiment: Displacement of [125I]endothelin-1 from human recombinant endothelin A receptor expressed in CHO cells; format: cell-based
T1 sequence (whole entry): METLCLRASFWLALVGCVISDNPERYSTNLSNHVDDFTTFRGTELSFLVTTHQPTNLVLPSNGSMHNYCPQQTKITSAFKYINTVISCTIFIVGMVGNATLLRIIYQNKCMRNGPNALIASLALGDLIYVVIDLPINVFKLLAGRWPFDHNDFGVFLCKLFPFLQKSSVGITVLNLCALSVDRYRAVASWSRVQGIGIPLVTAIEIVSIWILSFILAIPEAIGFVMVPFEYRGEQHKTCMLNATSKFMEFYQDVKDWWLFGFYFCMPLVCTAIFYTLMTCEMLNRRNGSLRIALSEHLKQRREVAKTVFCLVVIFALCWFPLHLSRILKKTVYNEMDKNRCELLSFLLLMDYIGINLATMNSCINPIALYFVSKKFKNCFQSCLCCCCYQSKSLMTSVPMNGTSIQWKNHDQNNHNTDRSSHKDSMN

[4] = Displacement of radioligand from GABAB receptor at 10 uM
[5] = biological target: T2, Cholecystokinin receptor type A (Homo sapiens) (UniProt P32238); experiment: Displacement of radioligand from cholecystokinin A receptor at 10 uM
T2 sequence (whole entry): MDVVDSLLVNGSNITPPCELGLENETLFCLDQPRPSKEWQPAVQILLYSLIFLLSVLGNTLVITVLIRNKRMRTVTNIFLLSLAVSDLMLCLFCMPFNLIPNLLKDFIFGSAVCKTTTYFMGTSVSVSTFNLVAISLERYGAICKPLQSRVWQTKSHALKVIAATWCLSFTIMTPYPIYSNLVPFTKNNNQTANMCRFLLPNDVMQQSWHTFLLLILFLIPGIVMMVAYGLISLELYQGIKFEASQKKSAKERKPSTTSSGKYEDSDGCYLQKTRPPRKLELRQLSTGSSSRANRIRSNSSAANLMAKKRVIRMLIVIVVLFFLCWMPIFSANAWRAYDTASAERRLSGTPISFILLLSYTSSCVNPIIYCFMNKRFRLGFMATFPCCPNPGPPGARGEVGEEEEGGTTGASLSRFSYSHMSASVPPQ

[6] = biological target: T3, Alpha-2A adrenergic receptor (Homo sapiens) (UniProt P08913); experiment: Displacement of radioligand from alpha 2 adrenergic receptor at 10 uM
T3 sequence (whole entry): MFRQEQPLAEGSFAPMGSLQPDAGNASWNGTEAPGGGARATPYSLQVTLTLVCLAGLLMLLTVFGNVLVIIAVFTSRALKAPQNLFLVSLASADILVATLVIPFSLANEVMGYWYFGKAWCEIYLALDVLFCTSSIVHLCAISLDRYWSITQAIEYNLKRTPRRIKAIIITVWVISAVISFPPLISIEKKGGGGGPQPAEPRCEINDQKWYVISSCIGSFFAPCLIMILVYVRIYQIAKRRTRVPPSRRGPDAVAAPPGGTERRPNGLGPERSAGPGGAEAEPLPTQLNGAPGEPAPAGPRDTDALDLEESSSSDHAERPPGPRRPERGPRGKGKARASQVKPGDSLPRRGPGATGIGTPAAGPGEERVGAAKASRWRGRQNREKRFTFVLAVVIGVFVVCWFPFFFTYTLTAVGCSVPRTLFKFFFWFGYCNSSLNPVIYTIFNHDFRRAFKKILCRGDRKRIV

[7] = biological target: T4, Muscarinic acetylcholine receptor M1 (Homo sapiens) (UniProt P11229); experiment: Displacement of radioligand from muscarinic M1 receptor at 10 uM
T4 sequence (whole entry): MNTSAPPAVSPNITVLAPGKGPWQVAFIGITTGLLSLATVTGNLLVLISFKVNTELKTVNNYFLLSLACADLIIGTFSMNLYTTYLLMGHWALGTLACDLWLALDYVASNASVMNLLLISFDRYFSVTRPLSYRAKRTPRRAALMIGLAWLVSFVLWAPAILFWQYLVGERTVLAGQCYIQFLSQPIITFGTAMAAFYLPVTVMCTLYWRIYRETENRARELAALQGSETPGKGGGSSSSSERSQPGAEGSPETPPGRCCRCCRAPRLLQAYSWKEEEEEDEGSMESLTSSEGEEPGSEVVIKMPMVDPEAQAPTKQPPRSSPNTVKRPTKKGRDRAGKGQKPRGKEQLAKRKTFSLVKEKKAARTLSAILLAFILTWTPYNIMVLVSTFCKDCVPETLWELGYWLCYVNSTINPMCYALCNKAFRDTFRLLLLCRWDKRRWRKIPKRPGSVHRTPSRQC

Rattus norvegicus = organism: Rattus norvegicus; experiment: Displacement of [125I]peptide YY from neuropeptide Y receptor in rat cerebral cortex at 10 uM; format: tissue-based
[8] = biological target: T5, B2 bradykinin receptor (Homo sapiens) (UniProt P30411); experiment: Displacement of [3H]bradykinin from human recombinant bradykinin B2 receptor expressed in CHO cells; format: cell-based
T5 sequence (whole entry): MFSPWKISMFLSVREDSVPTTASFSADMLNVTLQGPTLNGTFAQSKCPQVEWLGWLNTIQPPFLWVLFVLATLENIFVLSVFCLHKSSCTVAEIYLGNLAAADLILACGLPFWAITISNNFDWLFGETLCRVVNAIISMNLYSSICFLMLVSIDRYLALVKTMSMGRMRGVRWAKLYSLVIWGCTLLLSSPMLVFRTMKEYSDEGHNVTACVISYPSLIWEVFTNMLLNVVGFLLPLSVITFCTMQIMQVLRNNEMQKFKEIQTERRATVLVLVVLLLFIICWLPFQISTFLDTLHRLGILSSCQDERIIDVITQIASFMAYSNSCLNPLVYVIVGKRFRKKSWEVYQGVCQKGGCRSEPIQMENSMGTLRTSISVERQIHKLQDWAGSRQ

[9] = biological target: 5-hydroxytryptamine receptor 1B (Homo sapiens) (UniProt P28222); experiment: Displacement of radioligand from 5HT1B receptor at 10 uM by displacement assay
Sequence of 5-hydroxytryptamine receptor 1B (Homo sapiens) (P28222 whole entry): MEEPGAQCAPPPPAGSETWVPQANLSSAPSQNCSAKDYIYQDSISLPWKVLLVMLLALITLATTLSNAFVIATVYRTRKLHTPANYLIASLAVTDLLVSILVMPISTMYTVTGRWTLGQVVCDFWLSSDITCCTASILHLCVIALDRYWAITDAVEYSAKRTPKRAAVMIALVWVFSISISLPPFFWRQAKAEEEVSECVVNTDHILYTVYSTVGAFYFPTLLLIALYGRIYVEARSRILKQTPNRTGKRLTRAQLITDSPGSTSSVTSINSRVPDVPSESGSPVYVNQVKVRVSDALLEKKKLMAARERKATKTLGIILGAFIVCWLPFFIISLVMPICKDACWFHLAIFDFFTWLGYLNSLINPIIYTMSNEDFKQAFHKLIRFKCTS

[10] = biological target: Adrenergic receptor alpha-1 (Rattus norvegicus) (UniProt P15823+P23944+P43140); experiment: Displacement of [3H]prazosin from adrenergic receptor 1 alpha in rat cerebral cortex at 10 uM; format: tissue-based
[11] = Displacement of radioligand from opiate receptor at 10 uM
[12] = biological target: D(1A) dopamine receptor (Homo sapiens) (UniProt P21728); experiment: Displacement of radioligand from dopamine D1 receptor at 10 uM
Sequence of D(1A) dopamine receptor (Homo sapiens) (P21728 whole entry): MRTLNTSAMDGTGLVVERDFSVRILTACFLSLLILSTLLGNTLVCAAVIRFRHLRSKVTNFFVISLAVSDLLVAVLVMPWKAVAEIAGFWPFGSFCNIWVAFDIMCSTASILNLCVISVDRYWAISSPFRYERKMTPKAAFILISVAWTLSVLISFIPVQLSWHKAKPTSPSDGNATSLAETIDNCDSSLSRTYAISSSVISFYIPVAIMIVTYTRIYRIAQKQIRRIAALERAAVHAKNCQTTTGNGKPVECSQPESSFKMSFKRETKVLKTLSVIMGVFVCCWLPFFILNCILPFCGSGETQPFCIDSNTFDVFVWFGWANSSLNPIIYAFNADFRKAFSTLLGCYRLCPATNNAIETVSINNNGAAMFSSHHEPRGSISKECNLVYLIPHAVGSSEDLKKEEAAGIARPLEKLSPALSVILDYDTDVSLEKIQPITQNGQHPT

Sequence of Substance-P receptor (Homo sapiens) (P25103 whole entry): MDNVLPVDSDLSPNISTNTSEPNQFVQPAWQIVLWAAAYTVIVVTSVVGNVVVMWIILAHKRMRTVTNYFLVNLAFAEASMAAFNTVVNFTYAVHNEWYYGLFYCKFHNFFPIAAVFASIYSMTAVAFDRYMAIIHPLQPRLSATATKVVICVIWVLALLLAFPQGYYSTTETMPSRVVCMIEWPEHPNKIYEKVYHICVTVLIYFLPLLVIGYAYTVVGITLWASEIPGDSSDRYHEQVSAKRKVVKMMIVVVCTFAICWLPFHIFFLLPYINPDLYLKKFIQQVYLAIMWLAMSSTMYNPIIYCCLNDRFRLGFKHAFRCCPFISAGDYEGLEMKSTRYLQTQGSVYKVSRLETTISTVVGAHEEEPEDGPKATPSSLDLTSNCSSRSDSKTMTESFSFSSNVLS

| Activity [1] [%] | Activity [2] [%] | Activity [3] [%] | Activity [4] [%] | Activity [5] [%] | Activity [6] [%] | Activity [7] [%] | Activity (Rattus norvegicus) [%] | Activity [8] [%] | Activity [9] [%] | Activity [10] [%] | Activity [11] [%] | Activity [12] [%] | Compound |
| --- | --- | --- | --- | --- | --- | --- | --- | --- | --- | --- | --- | --- | --- |
| 21 | 0 | 0 | 12 | 53 | 0 | 34 | 33 | 49 | 0 | 0 | 16 | 0 | Cn1/c(=N/NC(=O)CC2CCCC2)sc2cc(OC(F)(F)F)ccc21 |
| 0 | 0 | 0 | 16 | 0 | 0 | 0 | 0 | 0 | 0 | 0 | 0 | 0 | Cn1/c(=N/NC(=O)CC(C)(C)C)sc2cc(OC(F)(F)F)ccc21 |
| 10 | 0 | 0 | 0 | 11 | 0 | 21 | 0 | 0 | 0 | 11 | 11 | 0 | CC(C)OC(=O)N/N=c1\sc2cc(OC(F)(F)F)ccc2n1C |
